Laboratory results taken from patent US7101915B1, “P-terphenyl compounds” (Shionogi & Co., Ltd., priority 1996, dated 2006).
Marks after values point to notes of the source that are not given here.

Tests used:
[1] = system: anti-OVA IgE antibody titer (PCA titer); test: Suppressive effect on the IgE production against ovalbumin (OVA), PCA titer; format: in vivo, BALB/c mice; settings: 40 mg/kg orally for 10 days; untreated group 9-12
Experimental: Experiment 4 Suppressive Effect on the IgE Production Against Ovalbumin (OVA)
BALB/c mice (female, 8-10 weeks old) and Wistar rats (female, 8-10 weeks old) which were bought from Japan SLC, Inc. (Shizuoka) were used.
BALB/c mice were immunized by an intraperitoneal administration of 0.2 ml suspension of 2 μg of ovalbumin (OVA) and 2 mg of aluminium hydroxide gel in physiological saline. After 10 days, blood was drawn from hearts, sera were separated and stocked at −40° C. till the measurement of an IgE antibody titer.
After the compound of the present invention was dissolved or suspended in N, N-dimethylacetoamide, the mixture was diluted 20 times with miglyol 812 neutral oil. The obtained solution was orally administered to mice at 0.1 ml per mouse. The administration was continued for 10 days from the immunizing day to the day before drawing blood. IPD-1151-T (a compound described in Jpn. Pharmacol. (1993) 61, 31–39) and a compound No. 36 (a compound 36 described in J. Med. Chem. (1997) 40: 395–407) were examined as controls by the same method.
4) Measurement of Anti-OVA IgE Antibody Titer (PCA Titer)
The samples 2-fold diluted with physiological saline were prepared from the obtained mouse serum and each 50 μl of the solution was intradermally injected to backs of Wistar rats which previously hair cut. After 24 hours, a passive cutaneous anaphylaxis reaction (PCA) was induced by an intravenous injection of 0.5 ml of physiological saline containing 1 mg of OVA and 5 mg of Evans' blue dye. After 30 minutes, the rats were sacrified and the highest dilution rate of the serum giving bluing with a diameter of more than 5 mm was recorded as the PCA titer. For example, when a serum is positive for the PCA reaction till […], the anti-OVA IgE antibody titer of the mouse is defined as 7.

[2] = system: IgG2a production of mouse spleen lymphocytes; test: Suppressive effect on antibody production of mouse spleen lymphocytes: IgG2a; format: cell-based, BALB/c (nu/nu) mice; settings: Lymphocyte, 240 h, LPS + IL-4, 10 days
Experimental: (§1) Experiment 6 Suppressive Effect on Antibody Production of Mouse Spleen Lymphocytes 1. Experimental Method 1) Animals
(§2) BALB/c (nu/nu) mice were bought from Japan SLC, Inc. (Shizuoka) and 7 weeks old-male mice were used.
(§3) RPMI medium (Nissui Pharmaceutical Co., Ltd.) containing 10% fetal bovine serum (HyClone Lab.) inactivated at 56° C. for 30 minutes, penicillin (100 units/ml) and streptomycin (100 μg/ml) (GIBCO) was used for experiments.
(§4) Each of the compounds was dissolved in dimethylsulfoxide (Nakaraitesk) at […] and diluted with the medium to adjust a final concentration to 0.1 μg/ml −10 μg/ml.
4) Mouse Spleen Lymphocytes […]
(§5) In 96-well cultivating plate (Sumitomo Bakelite Company Limited) mouse spleen lymphocytes were inoculated 2×10^5 cells per well. […] After the cultivation for 10 days, the amount of the antibody in a supernatant was quantified by ELISA method.
7) Quantification of the IgG1, IgG2a and IgM Antibodies
In 96-well plate 50 μl of 10 μg/ml Goat Anti-Mouse Ig (IgM+G+A, H+ L) (Southern Biotechnology, Birmingham) was added and the plate was coated at 4° C. overnight. […] After washing three times with PBST, 100 μl of culture supernatant which was diluted with PBS or 100 μl of an antibody standard solution (Mouse IgG1 standard, Mouse IgG2a standard, Mouse IgM standard, BETHYL Laboratories) of a pre-determined concentration was added and incubated for 1 hour. […]

[3] = system: IgE production of mouse spleen lymphocytes (lipopolysaccharide, IL-4); test: Suppressive effect on antibody production of mouse spleen lymphocytes: IgE; format: cell-based, BALB/c (nu/nu) mice; settings: Lymphocyte, 240 h, LPS + IL-4, 10 days
Experimental: as §1, §2, §3, §4
4) Mouse Spleen Lymphocytes
A spleen of mouse was taken out and put in a cultivating schale which was filled with Hanks' solution. The spleen was crushed and the cells were pushed out from the organ and filtered through a metal mesh (200 mesh). After the collected cell suspension was washed by centrifugation with sterile Hanks' solution (Nissui Pharmaceutical Co., Ltd.), sterile distilled water was added. […]
as §5
6) Quantification of the IgE Antibody
A commercial mouse IgE EIA kit (Yamasa Shoyu Co., Ltd.) was used for the quantification of the IgE. […]

## Cc1cc(-c2ccc(OCC=C(Cl)Cl)c(F)c2)c(C)cc1-c1ccc(O)cc1 [Compound I-963]
[1]
  PCA Titer: 3.6**
[2]
  IC50: 3.6 µg/mL
[3]
  IC50: 0.00026 ng/mL
